Test results published in ChEMBL document CHEMBL4813999, “Mur ligases inhibitors with azastilbene scaffold: Expanding the structure-activity relationship” (Bioorg Med Chem Lett, 2021).
pIC50: −log10 of the molar value. Converted amounts (≈) assume the structure as drawn.

Assays:
[1] = Inhibition of MurD (unknown origin)
[2] = Inhibition of MurE (unknown origin) at 100 uM relative to control
[3] = Inhibition of MurD (unknown origin) at 100 uM relative to control
[4] = Inhibition of MurE (unknown origin)
[5] = Inhibition of MurF (Unknown origin) at 100 uM relative to control
[6] = Inhibition of MurF (unknown origin)
[7] = system: Escherichia coli; experiment: Antibacterial activity against Escherichia coli ATCC 25922 assessed as inhibition of bacterial growth; type: functional
[8] = system: Staphylococcus aureus; experiment: Antibacterial activity against Staphylococcus aureus ATCC 29213 assessed as inhibition of bacterial growth; type: functional
[9] = Inhibition of MurC (unknown origin) at 100 uM relative to control
[10] = Inhibition of MurC (unknown origin)

pIC50 [1]	inhibition [2]	inhibition [3]	pIC50 [4]	inhibition [5]	pIC50 [6]	MIC [7]	MIC [8]	inhibition [9]	pIC50 [10]	SMILES
3.77	51%	40%	3.81	76%	4.51	> 250 µM	> 250 µM	20%	–	Cc1cc(-c2ccco2)cc(C)c1/C=C/c1cncc(C(N)=O)c1
4.07	46%	70%	3.82	58%	4.15	> 250 µM	> 250 µM	56%	4.09	Cc1cc(-c2ccco2)cc(C)c1/C=C/c1cncc(C2=NCCS2)c1
3.88	38%	46%	–	32%	–	> 250 µM	250 µM (≈ 89.1 µg/mL)	30%	–	Cc1cc(Br)cc(C)c1/C=C/c1cncc(-c2nnn[nH]2)c1
–	23%	16%	–	16%	–	> 250 µM	> 250 µM	15%	–	COC(=O)c1cccc(-c2cc(C)c(/C=C/c3cncc(-c4nnn[nH]4)c3)c(C)c2)c1
–	21%	23%	–	18%	–	> 250 µM	> 250 µM	15%	–	COc1cccc(-c2cc(C)c(/C=C/c3cncc(-c4nnn[nH]4)c3)c(C)c2)c1
–	16%	1%	–	29%	–	> 250 µM	250 µM (≈ 86.6 µg/mL)	22%	–	Cc1cc(N2CCCC2)cc(C)c1/C=C/c1cncc(-c2nnn[nH]2)c1
4.25	55%	73%	4.01	84%	4.77	> 250 µM	> 250 µM	23%	–	Cc1cc(-c2ccco2)cc(C)c1/C=C/c1cc(-c2nnn[nH]2)ccn1
–	23%	14%	–	24%	–	> 250 µM	> 250 µM	25%	–	Cc1cc(-c2cccc(CO)c2)cc(C)c1/C=C/c1cncc(-c2nnn[nH]2)c1
4.19	27%	70%	–	47%	3.96	> 250 µM	> 250 µM	43%	3.82	Cc1cc(-c2ccco2)cc(C)c1/C=C/c1cncc(C(=O)O)c1
–	4%	10%	–	0%	–	> 250 µM	> 250 µM	10%	–	Cc1cc(-c2cccnc2)cc(C)c1/C=C/c1cncc(-c2nn[nH]n2)c1
3.80	10%	47%	–	40%	3.70	250 µM (≈ 85.9 µg/mL)	31 µM (≈ 10.6 µg/mL)	42%	3.82	Cc1cc(-c2ccco2)cc(C)c1/C=C/c1cncc(C2=NCCN2)c1
–	19%	9%	–	15%	–	> 250 µM	> 250 µM	14%	–	Cc1cc(-c2ccncc2)cc(C)c1/C=C/c1cncc(-c2nnn[nH]2)c1
3.98	33%	42%	–	0%	–	> 250 µM	125 µM (≈ 47.9 µg/mL)	35%	–	COc1ccccc1-c1cc(C)c(/C=C/c2cncc(-c3nnn[nH]3)c2)c(C)c1
–	30%	14%	–	38%	–	> 250 µM	> 250 µM	15%	–	Cc1cc(N2CCCCC2=O)cc(C)c1/C=C/c1cncc(-c2nnn[nH]2)c1
–	35%	27%	–	21%	–	> 250 µM	> 250 µM	22%	–	Cc1cc(-c2ccco2)cc(C)c1/C=C/c1cncc(C#N)c1
–	39%	26%	–	18%	–	> 250 µM	> 250 µM	33%	–	Cc1cc(-c2cccc(C(=O)O)c2)cc(C)c1/C=C/c1cncc(-c2nnn[nH]2)c1
–	18%	22%	–	12%	–	> 250 µM	> 250 µM	16%	–	Cc1cc(-c2ccoc2)cc(C)c1/C=C/c1cncc(-c2nnn[nH]2)c1
–	37%	30%	–	25%	–	> 250 µM	250 µM (≈ 95.9 µg/mL)	30%	–	COc1ccc(-c2cc(C)c(/C=C/c3cncc(-c4nnn[nH]4)c3)c(C)c2)cc1
3.98	51%	55%	4.10	74%	4.23	> 250 µM	> 250 µM	30%	–	Cc1cc(-c2ccco2)cc(C)c1/C=C/c1cncc(-c2nn[nH]n2)c1
3.90	32%	45%	–	44%	3.84	> 250 µM	125 µM (≈ 43.1 µg/mL)	44%	3.82	Cc1cc(-c2ccco2)cc(C)c1/C=C/c1cncc(C2=NCCO2)c1
3.97	30%	64%	–	21%	–	> 250 µM	> 250 µM	5%	–	Cc1cc(-c2ccco2)cc(C)c1/C=C/c1cccc(-c2nnn[nH]2)c1
